Assays:
[1] = Crystal; DTA
[2] = Molar enthalpy of transition or fusion; conditions: Crystal; DSC
[3] = xn = mol fraction of the nth substance listed; conditions: 101 kPa, Liquid, Vibrating tube method

CCCCCCCCCCCC(=O)O [dodecanoic acid]
Conditions | Molar enthalpy of transition or fusion [kcal/mol] | Normal melting temperature [°C]
[1] | – | 44.33
[2] | 9.04 | –

CC[N+](CC)(CC)CC.[Cl-] [tetraethylammonium chloride] + O
mass density [kg/m3], [3]
Conditions | 298.15 K | 308.15 K | 318.15 K | 328.15 K | 338.15 K | 348.15 K | 358.15 K
x1 = 0.0173 | 1000.2 | 996.7 | 992.3 | – | – | – | –
x1 = 0.0403 | 1005.7 | 1001.1 | 996.5 | 990.9 | 982.8 | 971.4 | 953.1
x1 = 0.0727 | 1014.9 | 1009.5 | 1003.9 | 998.3 | 992.2 | 985.7 | 977.1
x1 = 0.1213 | 1027 | 1020.8 | 1014.4 | 1008 | 1001.5 | 995.1 | 988.4
x1 = 0.1994 | 1035.4 | 1029.1 | 1022.8 | 1016.4 | 1010 | 1003.4 | 997.2

C[N+](C)(C)C.[Cl-] [tetramethylammonium chloride]
Conditions | Normal melting temperature [°C]
[1] | 339.72

CCCCCCCCCCCCCC(=O)O [tetradecanoic acid]
Conditions | Molar enthalpy of transition or fusion [kcal/mol] | Normal melting temperature [°C]
[1] | – | 53.88
[2] | 9.87 | –

CCCCCCCCCCCCCCCC(=O)O [hexadecanoic acid]
Conditions | Molar enthalpy of transition or fusion [kcal/mol] | Normal melting temperature [°C]
[1] | – | 63.69
[2] | 12.2 | –

CCCCCCCCCCCCCCCCCC(=O)O [octadecanoic acid]
Conditions | Molar enthalpy of transition or fusion [kcal/mol] | Normal melting temperature [°C]
[1] | – | 70.52
[2] | 14.7 | –

CC[N+](CC)(CC)CC.[Cl-] [tetraethylammonium chloride]
Conditions | Molar enthalpy of transition or fusion [kcal/mol] | Normal melting temperature [°C]
[1] | – | 253.63
[2] | 12.2 | –

CCCCCCCCCC(=O)O [decanoic acid]
Conditions | Molar enthalpy of transition or fusion [kcal/mol] | Normal melting temperature [°C]
[1] | – | 31.60
[2] | 6.57 | –

C[N+](C)(C)C.[Cl-] [tetramethylammonium chloride] + O
mass density [kg/m3], [3]
Conditions | 298.15 K | 308.15 K | 318.15 K | 328.15 K | 338.15 K | 348.15 K | 358.15 K
x1 = 0.026 | 1001.5 | 998.1 | – | – | – | – | –
x1 = 0.06 | 1005.7 | 1001.7 | 997.5 | 991.3 | 985.1 | 975.6 | 959.5
x1 = 0.1062 | 1012.8 | 1008.6 | 1004.1 | 999.5 | 993.1 | 986.6 | 977.1
x1 = 0.1731 | 1022.5 | 1018.1 | 1013.5 | 1008.9 | 1004 | 998.9 | 993
x1 = 0.2831 | 1034.1 | 1029.5 | 1025 | 1020.3 | 1015.7 | 1010.9 | 1006.1
